How the values were obtained:
[1] = test system: bEND3, HT1080, HCT116 cells (EEF1A1 Band 2); assay: IEF separation of cellular extracts after MetAP2 inhibitor treatment, Coomassie Blue staining; type: cell-based, mouse, human; conditions: 100 nM TNP-470; 1 μM A-832234; versus DMSO-treated cells
Experimental: (§1) Cellular extracts were electrophoretically separated for detailed analysis. Isoelectric focusing electrophoresis was performed in a gradient range of pH 7-9. The IEF gels (CleanGel IEF ultra ETC1001-52 from ETC, Germany) were re-hydrated in 7 M urea, 2 M thiourea, 1% DTE, 4% CHAPS, 3%, Servalyte 7-9 for 120 min, and assembled on a Multiphor II electrophoresis unit (GE Healthcare). Samples (5 μl) were applied close to the anode and run with anode buffer (6 M glycine) and cathode fluid 10 (Serva, Germany). […] Separation was performed at 2000 V for 210 min, followed by band sharpening at 2500 V for 10 min. After removal the gel was equilibrated in transfer buffer (50 mM Tris-HCl pH 7.5, 4 M guanidinium chloride, 1 mg/ml DTT) for a diffusion blot onto PVDF membrane and run overnight. Subsequently, the membrane was stained either with Coomassie Blue or immunostained with rabbit PcAb anti-human EEF1A1 (Proteintech Group, USA; 11402-1-AP) for 3 h and detected with ECL-Plus reagent (GE Healthcare).
IEF separation of cellular extracts after treatment of different endothelial and cancer cells (mouse: bEND3, human: HT1080, HCT116) was performed in a range of pH 7-9 (FIG. 1). Comparing extracts from DMSO-treated and MetAP2 inhibitor-treated (100 nM TNP-470; […] . A zoomed view is shown in FIG. 2.

EEF1A1 in bEND3 cells = assay: EEF1A1 electrophoretic mobility shift in IEF gel, bEND3 cell extracts; type: cell-based, mouse; conditions: for EEF1A1 mobility shift versus negative controls (FIG. 10): bEND3 cells, 48 h, concentrations of Table 1
Experimental: as §1
The compounds used were characterized as inhibitors of MetAP2 and inhibitors of HUVEC cell proliferation with the indicated potencies (IC50).

HUVEC endothelial cells = assay: Inhibition of HUVEC cell proliferation (colorimetric BrdU-Elisa); conditions: Homo sapiens, 72 h, read-out: Inhibition of HUVEC proliferation (BrdU incorporation) (IC50)
Experimental: In this case the compounds were incubated in serial dilutions with the HUVEC endothelial cells for 72 h and subsequently processed for BrdU detection.

MetAP2 = MetAP2 (Homo sapiens, UniProt P50579); assay: Inhibition of MetAP2 activity: cleavage of tripeptide Met-Ala-Ser, enzyme-coupled detection of methionine; type: biochemical
Chain of MetAP2 (P50579 whole entry, species assumed): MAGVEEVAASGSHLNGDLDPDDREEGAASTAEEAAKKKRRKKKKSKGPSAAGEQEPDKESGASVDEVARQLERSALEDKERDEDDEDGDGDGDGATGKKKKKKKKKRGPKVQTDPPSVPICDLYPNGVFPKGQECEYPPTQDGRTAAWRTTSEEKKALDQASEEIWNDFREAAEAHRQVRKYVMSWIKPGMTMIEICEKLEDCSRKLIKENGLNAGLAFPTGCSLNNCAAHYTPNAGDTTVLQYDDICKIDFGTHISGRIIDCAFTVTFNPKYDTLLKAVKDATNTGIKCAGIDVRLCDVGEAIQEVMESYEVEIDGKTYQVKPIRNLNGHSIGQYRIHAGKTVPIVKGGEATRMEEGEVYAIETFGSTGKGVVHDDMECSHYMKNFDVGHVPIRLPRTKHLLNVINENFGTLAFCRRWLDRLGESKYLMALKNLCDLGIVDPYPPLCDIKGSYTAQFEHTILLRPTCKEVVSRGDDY

Compound	new protein band (Band 2) after IEF pH 7-9 [1]	EEF1A1 mobility shift versus negative controls (FIG. 10) (EEF1A1 in bEND3 cells)	EEF1A1 mobility shift, time course (EEF1A1 in bEND3 cells; bEND3 cell extract, TNP470, up to 48 h)	IC50 (HUVEC endothelial cells)	IC50 (MetAP2)
CCN(CC)C/C=C\c1cc(F)ccc1S(=O)(=O)Nc1ccc2c(c1C(=O)O)CCCC2 [Compound A-832234, 2-[2-((Z)-3-Diethylamino-propenyl)-4-fluoro-benzenesulfonylamino]-5,6,7,8-tetrahydro-naphthalene-1-carboxylic acid]	a novel protein band	active MetAP2 inhibitors			
CO[C@@H]1[C@H](OC(=O)NC(=O)CCl)CC[C@]2(CO2)[C@H]1[C@@]1(C)O[C@@H]1CC=C(C)C [TNP470]	a novel protein band	active MetAP2 inhibitors	a second band (Band 2) with increasing intensity was already to be seen after 2 h	0.1 nM	14 nM

— patent US9151743B2, “Use of EEF1A as biomarker and a method of screening MetAP2 inhibitors” (MERCK PATENT GMBH, priority 2008, dated 2015)
